ChEMBL document CHEMBL3580659, “One-pot multicomponent synthesis of indole incorporated thiazolylcoumarins and their antibacterial, anticancer and DNA cleavage studies” (2015)
Active and inactive are the calls of the source. The calls are words filed in the database; no cut-off is given here.

How the values were obtained:
OVCAR-5 = test: Cytotoxicity against human OVCAR5 cells assessed as cell growth level at 100 uM after 48 hrs by sulforhodamine B assay; format: functional
CAKI-1 [1] = test: Cytotoxicity against human CAKI-1 cells assessed as cell growth level at 100 uM after 48 hrs by sulforhodamine B assay; format: functional
COLO 205 = test: Cytotoxicity against human COLO205 cells assessed as cell growth level at 10 nM after 48 hrs by sulforhodamine B assay; format: functional
SNB-19 [2] = test: Cytotoxicity against human SNB19 cells assessed as cell growth level at 10 nM after 48 hrs by sulforhodamine B assay; format: functional
U-251 = test: Cytotoxicity against human U251 cells assessed as cell growth level at 10 nM after 48 hrs by sulforhodamine B assay; format: functional
OVCAR-3 = test: Cytotoxicity against human OVCAR3 cells assessed as cell growth level at 10 nM after 48 hrs by sulforhodamine B assay; format: functional
[3] = Cytotoxicity against human NCI-ADR-RES cells assessed as cell growth level at 10 nM after 48 hrs by sulforhodamine B assay; format: functional
SN12C = test: Cytotoxicity against human SN12C cells assessed as cell growth level at 10 nM after 48 hrs by sulforhodamine B assay; format: functional
HL-60(TB) = test: Cytotoxicity against human HL-60(TB) cells assessed as cell growth level at 100 nM after 48 hrs by sulforhodamine B assay; format: functional
RPMI-8226 = test: Cytotoxicity against human RPMI8226 cells assessed as cell growth level at 100 nM after 48 hrs by sulforhodamine B assay; format: functional
KM12 = test: Cytotoxicity against human KM12 cells assessed as cell growth level at 100 nM after 48 hrs by sulforhodamine B assay; format: functional
SK-MEL-28 = test: Cytotoxicity against human SK-MEL-28 cells assessed as cell growth level at 100 nM after 48 hrs by sulforhodamine B assay; format: functional
CAKI-1 [4] = test: Cytotoxicity against human CAKI-1 cells assessed as cell growth level at 100 nM after 48 hrs by sulforhodamine B assay; format: functional
NCI-H23 = test: Cytotoxicity against human NCI-H23 cells assessed as cell growth level at 10 uM after 48 hrs by sulforhodamine B assay; format: functional
A549 = test: Cytotoxicity against human A549/ATCC cells assessed as cell growth level at 1 uM after 48 hrs by sulforhodamine B assay; format: functional
NCI-H226 [5] = test: Cytotoxicity against human NCI-H226 cells assessed as cell growth level at 1 uM after 48 hrs by sulforhodamine B assay; format: functional
NCI-H522 = test: Cytotoxicity against human NCI-H522 cells assessed as cell growth level at 1 uM after 48 hrs by sulforhodamine B assay; format: functional
[6] = Cytotoxicity against human NCI-ADR-RES cells assessed as cell growth level at 10 uM after 48 hrs by sulforhodamine B assay; format: functional
786-0 = test: Cytotoxicity against human 786-0 cells assessed as cell growth level at 10 uM after 48 hrs by sulforhodamine B assay; format: functional
PC-3 = test: Cytotoxicity against human PC3 cells assessed as cell growth level at 10 uM after 48 hrs by sulforhodamine B assay; format: functional
SNB-75 = test: Cytotoxicity against human SNB75 cells assessed as cell growth level at 1 uM after 48 hrs by sulforhodamine B assay; format: functional
UACC-257 = test: Cytotoxicity against human UACC257 cells assessed as cell growth level at 1 uM after 48 hrs by sulforhodamine B assay; format: functional
CCRF-CEM [7] = test: Cytotoxicity against human CCRF-CEM cells assessed as cell growth level at 100 uM after 48 hrs by sulforhodamine B assay; format: functional
MOLT-4 = test: Cytotoxicity against human MOLT4 cells assessed as cell growth level at 100 uM after 48 hrs by sulforhodamine B assay; format: functional
NCI-H226 [8] = test: Cytotoxicity against human NCI-H226 cells after 48 hrs by sulforhodamine B assay; format: functional; details: NCI-H226, 48 h
HCT-15 = test: Cytotoxicity against human HCT15 cells after 48 hrs by sulforhodamine B assay; format: functional; details: HCT-15, 48 h
SW-620 [9] = test: Cytotoxicity against human SW620 cells after 48 hrs by sulforhodamine B assay; format: functional; details: SW-620, 48 h
NCI-H226 [10] = test: Cytotoxicity against human NCI-H226 cells assessed as cell growth level at 100 uM after 48 hrs by sulforhodamine B assay; format: functional
SW-620 [11] = test: Cytotoxicity against human SW620 cells assessed as cell growth level at 100 uM after 48 hrs by sulforhodamine B assay; format: functional
SF-295 = test: Cytotoxicity against human SF295 cells assessed as cell growth level at 100 uM after 48 hrs by sulforhodamine B assay; format: functional
SNB-19 [12] = test: Cytotoxicity against human SNB19 cells assessed as cell growth level at 100 uM after 48 hrs by sulforhodamine B assay; format: functional
LOX IMVI = test: Cytotoxicity against human LOXIMVI cells after 48 hrs by sulforhodamine B assay; format: functional
MDA-MB-231 = test: Cytotoxicity against human MDA-MB-231/ATCC cells after 48 hrs by sulforhodamine B assay; format: functional; details: MDA-MB-231, 48 h
T47D = test: Cytotoxicity against human T47D cells after 48 hrs by sulforhodamine B assay; format: functional
MDA-MB-468 = test: Cytotoxicity against human MDA-MB-468 cells after 48 hrs by sulforhodamine B assay; format: functional; details: MDA-MB-468, 48 h
Escherichia coli = test: Induction of DNA cleavage of Escherichia coli pUC18 plasmid DNA at 50 ug/ml after 2 hrs by agarose gel elctrophoresis method
CCRF-CEM [13] = test: Cytotoxicity against human CCRF-CEM cells assessed as cell growth level at 10 nM after 48 hrs by sulforhodamine B assay; format: functional
[14] = read-out: LC50 (the source's name)
[15] = read-out: pLC50 (the source's name) (converted)

## O=c1oc2ccccc2cc1-c1csc(N/N=C/c2c[nH]c3ccccc23)n1
OVCAR-5
  Activity: -36%
CAKI-1 [1]
  Activity: -57%
COLO 205
  Activity: 110%
SNB-19 [2]
  Activity: 91%
U-251
  Activity: 100%
OVCAR-3
  Activity: 99%
[3]
  Activity: 105%
SN12C
  Activity: 88%
HL-60(TB)
  Activity: 97%
RPMI-8226
  Activity: 94%
KM12
  Activity: 98%
SK-MEL-28
  Activity: 91%
CAKI-1 [4]
  Activity: 88%
NCI-H23
  Activity: 25.93%
A549
  Activity: 68%
NCI-H226 [5]
  Activity: 101%
NCI-H522
  Activity: 103%
[6]
  Activity: 24.9%
786-0
  Activity: -53.65%
PC-3
  Activity: -37.33%
SNB-75
  Activity: 74%
UACC-257
  Activity: 82%
CCRF-CEM [7]
  Activity: -39%
MOLT-4
  Activity: -40%
NCI-H226 [8]; read-out: GI50
  GI50: 2.38 µM
NCI-H226 [8]; [14]
  CC50: > 100 µM
NCI-H226 [8]; read-out: TGI
  TGI: 7.7 µM
NCI-H226 [8]; read-out: pGI50 (converted)
  GI50: 2.4 µM
NCI-H226 [8]; [15]
  CC50: > 100 µM
NCI-H226 [8]; read-out: pTGI (converted)
  TGI: 7.76 µM
HCT-15; read-out: GI50
  GI50: 1.61 µM
HCT-15; [14]
  CC50: 7.46 µM
HCT-15; read-out: TGI
  TGI: 3.47 µM
HCT-15; read-out: pGI50 (converted)
  GI50: 1.62 µM
HCT-15; [15]
  CC50: 7.41 µM
HCT-15; read-out: pTGI (converted)
  TGI: 3.47 µM
SW-620 [9]; read-out: GI50
  GI50: 2.19 µM
SW-620 [9]; [14]
  CC50: 70.9 µM
SW-620 [9]; read-out: TGI
  TGI: 5.24 µM
SW-620 [9]; read-out: pGI50 (converted)
  GI50: 2.19 µM
SW-620 [9]; [15]
  CC50: 70.8 µM
SW-620 [9]; read-out: pTGI
  TGI: 5.25 µM
NCI-H226 [10]
  Activity: -31%
SW-620 [11]
  Activity: -7%
SF-295
  Activity: -71%
SNB-19 [12]
  Activity: -44%
LOX IMVI; read-out: GI50
  GI50: 1.93 µM
LOX IMVI; [14]
  CC50: 6.71 µM
LOX IMVI; read-out: TGI
  TGI: 3.6 µM
LOX IMVI; read-out: pGI50 (converted)
  GI50: 1.91 µM
LOX IMVI; [15]
  CC50: 6.76 µM
LOX IMVI; read-out: pTGI (converted)
  TGI: 3.63 µM
MDA-MB-231; read-out: GI50
  GI50: 1.39 µM
MDA-MB-231; [14]
  CC50: 7.94 µM
MDA-MB-231; read-out: TGI
  TGI: 3.33 µM
MDA-MB-231; read-out: pGI50 (converted)
  GI50: 1.38 µM
MDA-MB-231; [15]
  CC50: 7.94 µM
MDA-MB-231; read-out: pTGI (converted)
  TGI: 3.31 µM
T47D; read-out: GI50
  GI50: 1.98 µM
T47D; [14]
  CC50: > 100 µM
T47D; read-out: TGI
  TGI: 5.9 µM
T47D; read-out: pGI50 (converted)
  GI50: 2 µM
T47D; [15]
  CC50: > 100 µM
T47D; read-out: pTGI (converted)
  TGI: 5.89 µM
MDA-MB-468; read-out: GI50
  GI50: 1.52 µM
MDA-MB-468; [14]
  CC50: > 100 µM
MDA-MB-468; read-out: TGI
  TGI: 3.92 µM
MDA-MB-468; read-out: pGI50 (converted)
  GI50: 1.51 µM
MDA-MB-468; [15]
  CC50: > 100 µM
MDA-MB-468; read-out: pTGI (converted)
  TGI: 3.89 µM
Escherichia coli
  Activity: Active
CCRF-CEM [13]
  Activity: 100%
